Patent US12622953B2, “Vaccines targeting neoepitopes” (Evaxion Biotech A/S, priority 2019, dated 2026)
Entries after “also recorded” stand apart in the source; their conditions may differ.

Test system: neo-peptide specific CD8+ T cells
Experiment: MHC I multimer staining of whole blood after i.p. immunization
Format: in vivo, BALB/c mice
Details: endpoint day 28, 2.0 μg C22 i.p.
Description: 6-8 weeks old BALB/c JrJ femal mice were acquired from Janvier Labs. The mice were acclimated for one week before initiation of the experiment. The mice had ad libitum access to water and standard chow pellets. The experiment was conducted under license 2017-15-0201-01338 from the Danish Animal Experimentation Inspectorate in accordance with the Danish Animal Experimentation Act, which is stricter and therefore fully compliant with the European directive (2010/63/EU). The mice were ear tagged to allow for identification of individuals.
To avoid “cage effects” all treatment groups were represented in each cage. Mice in groups 1, 2, 3 and 4 (the cluster immunization groups) were intraperitoneally (i.p.) immunized at day 0, 1, 2, 3, 7, 14 and 21 with 0.4, 2.0, 10.0 and 50.0 μg of C22 admixed with CAF09b, respectively. Corresponding groups (5, 6, 7 and 8) were vaccinated according to a traditional prime-boost strategy on days 0, 14 and 21 with solutions identical to what group 1, 2, 3 and 4 received. Dosing volumes for the mice were 200 μl for all vaccines.
The C22 peptide was synthesised by GenScript and aliquoted into 0.8 mg portions as a lyophilized product. The peptide was solubilized in DMSO to a concentration of 10 mg/ml by adding 80 μl DMSO to each aliquot. The peptide stock was then diluted 10 times in sterile water (80 μl peptide stock+720 μl sterile water). […]

QIETQQRKFKASRASILSEMKMLKEKR (listed as Mus musculus) [Peptide C22]
MHC:C22 positive CD8+ T cells in blood (cluster primed): low-frequency MHC:C22 positive CD8+ T cells were detected; also recorded: small increase
neo-peptide specific CD8+ cells in blood (standard prime-boost schedule): hardly any
